In article PMC9820430, “New Affordable Methods for Large-Scale Isolation of Major Olive Secoiridoids and Systematic Comparative Study of Their Antiproliferative/Cytotoxic Effect on Multiple Cancer Cell Lines of Different Cancer Origins” (International Journal of Molecular Sciences, 2022):
Where two headings read alike, the source gives them in different places.

Legend:
[1] = tested on: SK-BR-3; conditions: cited from earlier work
[2] = tested on: MDA-MB 231; conditions: cited from earlier work
[3] = tested on: MDA-MB 231; assay: Annexin V-FITC/PI staining, flow cytometry; type: cell-based, human
Excerpt: (§1) To discern whether cell death triggered by OOPs treatment occurred via apoptosis or necrosis under the experimental conditions applied in this study, live cells treated with OOPs were stained simultaneously with FITC-conjugated annexin V and propidium iodide (PI). Annexin V binds to phosphatidylserine (PS) translocating from the inner to the outer leaflet of the plasma membrane in apoptotic cells. Therefore, annexin V-FITC binding to PS labels live apoptotic cells with green FL. […] PS exposure to the extracellular space and cell membrane permeability were analyzed by flow cytometry as described in detail in the Experimental Section. […] OOP concentrations used were equal to the EC50 values for each cell line (Table 1). annexin V and PI staining discriminated between early- (i.e., annexin V +ve and PI −ve) and late-apoptotic cells (i.e., annexin V +ve and PI +ve), as well as between necrotic (i.e., annexin V −ve and PI +ve) and live (i.e., annexin V −ve and PI −ve) cells (Table 4).
(§2) Apoptosis and necrosis were assessed by double staining with annexin V-FITC and propidium iodide (PI) and were analyzed using flow cytometry (FACS). Human cancer cells were plated in 96-well culture plates in 100 μL of complete medium and were allowed to adhere overnight (~16 h). […] In detail, 0.5 μL of a 500× stock of each tested compound in DMSO was added directly into each well in a final volume of 250 μL culture medium and was gently mixed by pipetting. Control wells were prepared under the same experimental conditions by adding only DMSO at a final concentration of 0.2% (v/v). At the end of the treatment, the cells were detached by trypsinization, media with serum was added to deactivate trypsin, and the cells from three wells were pooled together by centrifugation (1000 rpm, 5 min, 24 °C), washed with cold PBS, centrifuged (1000 rpm, 5 min, 24 °C) and finally resuspended in cold 1× annexin V binding buffer (10 mM HEPES pH = 7.4, 150 mM NaCl, 2.5 mM CaCl2) at a density of 10^4 cells/mL. Staining was performed by incubating with annexin V- FITC and propidium iodide (PI; BioLegend) for 15 min at room temperature in the dark, according to the manufacturer’s instructions. […] Cells treated with Triton X-100 (0.25% (v/v)) for 5 min at 4 °C were used as controls for 100% permeabilization of the plasma membrane and maximum fluorescence staining with PI (positive control for cells in necrosis). The presence of live, apoptotic or necrotic cells was assessed with the FACS Calibur (Becton–Dickinson, San Jose, CA, USA). In total, 10,000 cells were analyzed per measurement and the acquired data were analyzed using the FlowJo V.10.0.8 software (Tree Star Inc., Ashland, OR, USA). Each condition was analyzed in duplicate, and the results presented are from 2 or 3 independent experiments.
(§3) Data showing OOPs’ apoptotic/necrotic effect were derived from two or three independent experiments and were presented as the means ± SE of the percentage (%) of both annexin V-positive cells (early apoptotic events) and % of annexin V/PI positive cells (late apoptotic events) over the whole cell population normalized to the corresponding events of the control cells, as determined using the FlowJo software.

[4] = tested on: SK-MEL-28; assay: Annexin V-FITC/PI staining, flow cytometry; type: cell-based, human
Excerpt: as §1, §2, §3

[5] = tested on: PANC-1; assay: Annexin V-FITC/PI staining, flow cytometry; type: cell-based, human; conditions: 48 h at EC50
Excerpt: as §1
(§4) Apoptosis and necrosis were assessed by double staining with annexin V-FITC and propidium iodide (PI) and were analyzed using flow cytometry (FACS). Human cancer cells were plated in 96-well culture plates in 100 μL of complete medium and were allowed to adhere overnight (~16 h). […] In detail, 0.5 μL of a 500× stock of each tested compound in DMSO was added directly into each well in a final volume of 250 μL culture medium and was gently mixed by pipetting. Control wells were prepared under the same experimental conditions by adding only DMSO at a final concentration of 0.2% (v/v). At the end of the treatment, the cells were detached by trypsinization, media with serum was added to deactivate trypsin, and the cells from three wells were pooled together by centrifugation (1000 rpm, 5 min, 24 °C), washed with cold PBS, centrifuged (1000 rpm, 5 min, 24 °C) and finally resuspended in cold 1× annexin V binding buffer (10 mM HEPES pH = 7.4, 150 mM NaCl, 2.5 mM CaCl2) at a density of 10^4 cells/mL. Staining was performed by incubating with annexin V- FITC and propidium iodide (PI; BioLegend) for 15 min at room temperature in the dark, according to the manufacturer’s instructions. Negative control samples consisted of cells treated only with 0.2% (v/v) DMSO for the same incubation time length (i.e., 48 h). Cells treated with Triton X-100 (0.25% (v/v)) for 5 min at 4 °C were used as controls for 100% permeabilization of the plasma membrane and maximum fluorescence staining with PI (positive control for cells in necrosis). The presence of live, apoptotic or necrotic cells was assessed with the FACS Calibur (Becton–Dickinson, San Jose, CA, USA). In total, 10,000 cells were analyzed per measurement and the acquired data were analyzed using the FlowJo V.10.0.8 software (Tree Star Inc., Ashland, OR, USA). Each condition was analyzed in duplicate, and the results presented are from 2 or 3 independent experiments.
as §3

[6] = tested on: AGS; assay: Annexin V-FITC/PI staining, flow cytometry; type: cell-based, human; conditions: 48 h at EC50
Excerpt: as §1, §4, §3

[7] = tested on: SK-BR-3; assay: Annexin V-FITC/PI staining, flow cytometry; type: cell-based, human; conditions: 48 h at EC50
Excerpt: as §1, §4, §3

[8] = tested on: H1299; assay: Annexin V-FITC/PI staining, flow cytometry; type: cell-based, human; conditions: 48 h at EC50
Excerpt: as §1, §4, §3

Compound: COC(=O)C1=COC(C)[C@@H](C=O)[C@@H]1CC(=O)OCCc1ccc(O)c(O)c1 (mixture of isomers) [3a,b, oleuropein aglycone]
- EC50 ([1]; five days of treatment, ref Menendez et al. (2007) 17, read-out: concentration reducing cell viability by 50%): 47 µM
- EC50 ([2]; ref Mazzei et al. (2020) 27): 53 µM
- % Cell Viability ([3]; 48 h at EC50): 69%
- Early Apoptotic (% ± S.D.) ([3]; 48 h at EC50): 4.17± 0.4%
- Late Apoptotic (% ± S.D.) ([3]; 48 h at EC50): 3.87 ± 3.7%
- Total Apoptotic (%) ([3]; 48 h at EC50): 8.04 ± 4.1%
- % Cell Viability ([4]; 48 h at EC50): 68%
- Early Apoptotic (% ± S.D.) ([4]; 48 h at EC50): 8.33 ± 1.9%
- Late Apoptotic (% ± S.D.) ([4]; 48 h at EC50): 4.91 ± 1.7%
- Total Apoptotic (%) ([4]; 48 h at EC50): 13.24 ± 3.7%
- % Cell Viability [5]: 40%
- Early Apoptotic (% ± S.D.) [5]: 8.52 ± 2.3%
- Late Apoptotic (% ± S.D.) [5]: 3.01 ± 2.0%
- Total Apoptotic (%) [5]: 11.52 ± 4.3%
- % Cell Viability [6]: 31%
- Early Apoptotic (% ± S.D.) [6]: 19.40 ± 0.6%
- Late Apoptotic (% ± S.D.) [6]: 8.08 ± 2.0%
- Total Apoptotic (%) [6]: 27.48 ± 1.4%
- % Cell Viability [7]: 59%
- Early Apoptotic (% ± S.D.) [7]: 7.63 ± 1.9%
- Late Apoptotic (% ± S.D.) [7]: No L.A.
- Total Apoptotic (%) [7]: 7.63 ± 1.9%
- % Cell Viability [8]: 40%
- Early Apoptotic (% ± S.D.) [8]: 9.14 ± 3.1%
- Late Apoptotic (% ± S.D.) [8]: 5.44 ± 2.2%
- Total Apoptotic (%) [8]: 14.58 ± 5.3%

Compound: C/C=C(/C=O)[C@@H](CC=O)CC(=O)OCCc1ccc(O)cc1 [compound 1, oleocanthal]
- EC50 ([1]; 48 h treatment in HGF- and EGF-supplemented media, ref Siddique et al. (2019) 76, read-out: EC50): 27.3 µM
- EC50 ([2]; 48 or 72 h, different culture conditions): 10 to 18.5 µM
- % Cell Viability ([3]; 48 h at EC50): 85%
- Early Apoptotic (% ± S.D.) ([3]; 48 h at EC50): 1.19 ± 0.01%
- Late Apoptotic (% ± S.D.) ([3]; 48 h at EC50): 1.38 ± 0.1%
- Total Apoptotic (%) ([3]; 48 h at EC50): 2.56 ± 0.1%
- % Cell Viability ([4]; 48 h at EC50): 68%
- Early Apoptotic (% ± S.D.) ([4]; 48 h at EC50): 4.10 ± 0.2%
- Late Apoptotic (% ± S.D.) ([4]; 48 h at EC50): 2.47 ± 0.7%
- Total Apoptotic (%) ([4]; 48 h at EC50): 6.57 ± 0.5%
- % Cell Viability [5]: 60%
- Early Apoptotic (% ± S.D.) [5]: 4.47 ± 0.8%
- Late Apoptotic (% ± S.D.) [5]: No L.A.
- Total Apoptotic (%) [5]: 4.47 ± 0.8%
- % Cell Viability [6]: 33%
- Early Apoptotic (% ± S.D.) [6]: 18.42 ± 4.4%
- Late Apoptotic (% ± S.D.) [6]: 4.94 ± 3.1%
- Total Apoptotic (%) [6]: 23.36 ± 1.4%
- % Cell Viability [7]: 59%
- Early Apoptotic (% ± S.D.) [7]: 7.45 ± 4.4%
- Late Apoptotic (% ± S.D.) [7]: 1.26 ± 0.7%
- Total Apoptotic (%) [7]: 8.71 ± 5.1%
- % Cell Viability [8]: 57%
- Early Apoptotic (% ± S.D.) [8]: 4.77 ± 0.9%
- Late Apoptotic (% ± S.D.) [8]: 7.27 ± 0.2%

Compound: C/C=C(/C=O)[C@@H](CC=O)CC(=O)OCCc1ccc(O)c(O)c1 [compound 2, oleacein]
- % Cell Viability ([3]; 48 h at EC50): 73%
- Early Apoptotic (% ± S.D.) ([3]; 48 h at EC50): 1.89 ± 0.03%
- Late Apoptotic (% ± S.D.) ([3]; 48 h at EC50): 1.49 ± 0.3%
- Total Apoptotic (%) ([3]; 48 h at EC50): 3.38 ± 0.2%
- % Cell Viability ([3]; 72 h at EC50): 70%
- Early Apoptotic (% ± S.D.) ([3]; 72 h at EC50): 3.65 ± 0.5%
- Late Apoptotic (% ± S.D.) ([3]; 72 h at EC50): 1.64 ± 0.5%
- Total Apoptotic (%) ([3]; 72 h at EC50): 5.29 ± 1.0%
- % Cell Viability ([4]; 48 h at EC50): 76%
- Early Apoptotic (% ± S.D.) ([4]; 48 h at EC50): 5.87 ± 1.1%
- Late Apoptotic (% ± S.D.) ([4]; 48 h at EC50): No L.A.
- Total Apoptotic (%) ([4]; 48 h at EC50): 5.87 ± 1.1%
- % Cell Viability ([4]; 72 h at EC50): 72%
- Early Apoptotic (% ± S.D.) ([4]; 72 h at EC50): 6.70 ± 1.0%
- Late Apoptotic (% ± S.D.) ([4]; 72 h at EC50): 1.34 ± 0.3%
- Total Apoptotic (%) ([4]; 72 h at EC50): 8.04 ± 0.7%
- % Cell Viability [5]: 58%
- Early Apoptotic (% ± S.D.) [5]: 4.39 ± 1.8%
- Late Apoptotic (% ± S.D.) [5]: No L.A.
- Total Apoptotic (%) [5]: 4.39 ± 1.8%
- % Cell Viability [6]: 41%
- Early Apoptotic (% ± S.D.) [6]: 10.00 ± 1.3%
- Late Apoptotic (% ± S.D.) [6]: 4.55 ± 1.8%
- Total Apoptotic (%) [6]: 14.55 ± 3.1%
- % Cell Viability [7]: 60%
- Early Apoptotic (% ± S.D.) [7]: 5.78 ± 0.9%
- Late Apoptotic (% ± S.D.) [7]: No L.A.
- Total Apoptotic (%) [7]: 5.78 ± 0.9%
- % Cell Viability [8]: 40%
- Early Apoptotic (% ± S.D.) [8]: 5.96 ± 1.6%
- Late Apoptotic (% ± S.D.) [8]: 3.07 ± 1.8%
- Total Apoptotic (%) [8]: 9.03 ± 0.2%

Compound: ligstroside aglycone [4a,b]
- EC50 ([1]; 5 day treatment, read-out: EC50): 26 ± 6 µM
- EC50 ([2]; 48 h treatment, ref Busnena et al. (2013) 23): ~80 µM
- % Cell Viability ([4]; 48 h at EC50): 82%
- Early Apoptotic (% ± S.D.) ([4]; 48 h at EC50): 1.86 ± 0.8%
- Late Apoptotic (% ± S.D.) ([4]; 48 h at EC50): No L.A.
- Total Apoptotic (%) ([4]; 48 h at EC50): 1.86 ± 0.8%
- % Cell Viability [5]: 34%
- Early Apoptotic (% ± S.D.) [5]: 12.37 ± 2.7%
- Late Apoptotic (% ± S.D.) [5]: 4.42 ± 0.4%
- Total Apoptotic (%) [5]: 16.78 ± 3.1%
- % Cell Viability [6]: 36%
- Early Apoptotic (% ± S.D.) [6]: 16.03 ± 0.8%
- Late Apoptotic (% ± S.D.) [6]: 7.77 ± 1.8%
- Total Apoptotic (%) [6]: 23.79 ± 2.6%
- % Cell Viability [7]: 87%
- Early Apoptotic (% ± S.D.) [7]: 1.30 ± 0.3%
- Late Apoptotic (% ± S.D.) [7]: No L.A.
- Total Apoptotic (%) [7]: 1.30 ± 0.3%
